These results are taken from patent US7435837B2, “Dihydrobenzofuranyl alkanamine derivatives and methods for using same” (Wyeth, priority 2003, dated 2008).

The target of this experiment is T1, human 5-HT2C receptor (Homo sapiens, UniProt P28335).
T1 sequence (P28335 33-458): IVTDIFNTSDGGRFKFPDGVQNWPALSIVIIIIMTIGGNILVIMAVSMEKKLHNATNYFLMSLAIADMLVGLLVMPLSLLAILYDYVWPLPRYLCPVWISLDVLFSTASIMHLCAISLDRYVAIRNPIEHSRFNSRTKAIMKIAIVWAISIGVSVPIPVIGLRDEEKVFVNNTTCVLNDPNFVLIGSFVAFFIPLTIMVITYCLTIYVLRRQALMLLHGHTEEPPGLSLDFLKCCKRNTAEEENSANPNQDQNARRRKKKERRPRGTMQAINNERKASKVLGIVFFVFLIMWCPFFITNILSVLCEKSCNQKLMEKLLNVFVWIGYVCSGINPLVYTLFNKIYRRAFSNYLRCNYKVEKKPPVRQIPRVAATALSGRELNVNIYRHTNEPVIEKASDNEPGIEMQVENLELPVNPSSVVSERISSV
Kind of experiment: 5-HT2C receptor-stimulated calcium mobilization (FLIPR) in CHO cells.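 As to all read-outs here: Fluo-3-AM fluorescence read on FLIPR every 1 s, agonist added after 10 baseline reads, response taken as peak minus lowest raw fluorescence count.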 The format is cell-based. As to conditions: for Emax: CHO; for EC50: calcium mobilization, CHO cells stably expressing human 5-HT2C, read-out: 5-HT2C Function EC50. (In general: Calcium flux is commonly read through the fluorescence of an indicator in the cells.)

[1] abbreviates: percentage of the response observed with a maximally effective concentration of 5-HT, read-out: 5-HT2C Function Emax (%).
Where [2] appears, read: percentage of the response observed with a maximally effective concentration of 5-HT.

Read-outs that look alike come from different tables or passages of the source.

As usually defined, the EC50 is the midpoint of the concentration-response curve.

As for `NC[C@H]1Cc2cc(F)cc(-c3c(Cl)cccc3Cl)c2O1` [Example 550, (−)-{[7-(2,6-dichlorophenyl)-5-fluoro-2,3-dihydro-1-benzofuran-2-yl]methyl}amine], under setting [1], the Emax is 100%.
With `CCCNCC1Cc2cc(Cl)cc(-c3c(C)cccc3C)c2O1` (racemic) [Example 278, (±)-N-{[5-chloro-7-(2,6-dimethylphenyl)-2,3-dihydro-1-benzofuran-2-yl]methyl}propan-1-amine], the EC50 came out at 726 nM. The Emax under setting [1] stood at 60%.
As to `CNCC1Cc2cc(Cl)cc(-c3cc(Cl)ccc3Cl)c2O1` (single isomer, unassigned; (-)) [Example 563, (−)-{[5-chloro-7-(2,5-dichlorophenyl)-2,3-dihydro-1-benzofuran-2-yl]methyl}methylamine], the EC50 came to 135 nM. For the same compound, under setting [2], the “5-HT2C Function Emax (%)” value came to 70%.
Turning to `Cc1cccc(-c2cccc3c2OC(CN)C3)c1C` (racemic) [Example 154, (±)-1-[7-(2,3-dimethylphenyl)-2,3-dihydro-1-benzofuran-2-yl]methanamine], the EC50 came out at 65 nM. The Emax under setting [1] came out at 90%.
Turning to `CCCNCC1Cc2cc(F)cc(-c3c(Cl)cccc3Cl)c2O1` (racemic) [Example 235, (±)-N-{[7-(2,6-dichlorophenyl)-5-fluoro-2,3-dihydro-1-benzofuran-2-yl]methyl}propan-1-amine], the EC50 was determined as 49 nM. Moreover, the Emax under setting [1] was 50%.
On to `Fc1cc2c(c(-c3c(Cl)cccc3Cl)c1)OC(CN1CCCC1)C2` (racemic) [Example 240, (±)-1-{[7-(2,6-dichlorophenyl)-5-fluoro-2,3-dihydro-1-benzofuran-2-yl]methyl}pyrrolidine], for which the EC50 came out at 89 nM. For the same compound, the Emax under setting [1] amounted to 70%.
On to `CNCC1Cc2cc(Cl)cc(-c3ccc(Cl)cc3Cl)c2O1` (racemic) [Example 468, (±)-{[5-chloro-7-(2,4-dichlorophenyl)-2,3-dihydro-1-benzofuran-2-yl]methyl}methylamine], for which the EC50 was found to be 73 nM. Moreover, the Emax under setting [1] worked out at 80%.
Taken in the same sequence, the figures for `CNCC1Cc2cc(F)cc(-c3c(C)cccc3C)c2O1` (racemic) [Example 453, (±)-{[7-(2,6-dimethylphenyl)-5-fluoro-2,3-dihydro-1-benzofuran-2-yl]methyl}methylamine] were 24 nM and 80%.
Regarding `CNCC1Cc2cc(Cl)cc(-c3ccc(F)cc3F)c2O1` (racemic) [Example 467, (±)-{[5-chloro-7-(2,4-difluorophenyl)-2,3-dihydro-1-benzofuran-2-yl]methyl}methylamine], the EC50 worked out at 257 nM. Further, the Emax under setting [1] came out at 80%.
Turning to `CNCC1Cc2cc(F)cc(-c3ccc(Cl)cc3Cl)c2O1` (single isomer, unassigned; (-)) [Example 446], the EC50 was found to be 460 nM. Further, the Emax (read-out: 5-HT2C Function Emax (%), percentage of the response observed with a maximally effective concentration of 5-HT) stood at 70%.
Take `CNCC1Cc2cccc(-c3cc(F)ccc3F)c2O1` (racemic) [Example 428, (±)-[(N-methyl-1-[7-(2,5-difluorophenyl)-2,3-dihydro-1-benzofuran-2-yl]methanamine]: the EC50 came to 69 nM. Besides, the Emax under setting [1] is 80%.
Regarding `COc1cccc(-c2cc(C)cc3c2OC(CN)C3)c1OC` (single isomer, unassigned; (+)) [Example 296, (+)-{[7-(2,3-dimethoxyphenyl)-5-methyl-2,3-dihydro-1-benzofuran-2-yl]methyl}amine], the EC50 came out at 50 nM. The “5-HT2C Function Emax (%)” value under setting [2] is given as 80%.
In the case of `CNCC1Cc2cccc(-c3cccc(C)c3C)c2O1` (racemic) [Example 422, (±)-[(N-methyl-1-[7-(2,3-dimethylphenyl)-2,3-dihydro-1-benzofuran-2-yl]methanamine], the EC50 came to 443 nM. Besides, the Emax under setting [1] stood at 80%.
Consider `Cc1cccc(C)c1-c1cc(Cl)cc2c1OC(CNC1CCC1)C2` (racemic) [Example 269, (±)-N-{[5-chloro-7-(2,6-dimethylphenyl)-2,3-dihydro-1-benzofuran-2-yl]methyl}cyclobutanamine], for which the EC50 was found to be 5120 nM. The Emax under setting [1] worked out at 20%.
For `Fc1cc2c(c(-c3c(Cl)cccc3Cl)c1)OC(CNCC1CC1)C2` (racemic) [Example 232, (±)-1-cyclopropyl-N-{[7-(2,6-dichlorophenyl)-5-fluoro-2,3-dihydro-1-benzofuran-2-yl]methyl}methanamine], the EC50 was 114 nM. The Emax under setting [1] amounted to 50%.
Turning to `CNCC1Cc2cc(F)cc(-c3ccc(Cl)cc3Cl)c2O1` (single isomer, unassigned; (+)) [Example 447], the EC50 amounted to 3 nM. Further, under setting [2], the “5-HT2C Function Emax (%)” value came out at 90%.
Regarding `Cc1cccc(C)c1-c1cc(F)cc2c1OC(CN)C2` (single isomer, unassigned; (+)) [Example 228, (+)-{[7-(2,6-dimethylphenyl)-5-fluoro-2,3-dihydro-1-benzofuran-2-yl]methyl}amine], the EC50 was 313 nM. The “5-HT2C Function Emax (%)” value under setting [2] was determined as 70%.
Turning to `Cc1cccc(C)c1-c1cc(Cl)cc2c1OC(CN1CCCC1)C2` (racemic) [Example 280, (±)-1-{[5-chloro-7-(2,6-dimethylphenyl)-2,3-dihydro-1-benzofuran-2-yl]methyl}pyrrolidine], the EC50 turned out to be 288 nM. In addition, under setting [1], the Emax is 70%.
Consider `CNCC1Cc2cccc(-c3ccc(F)cc3F)c2O1` (racemic) [Example 424, (±)-[(N-methyl-1-[7-(2,4-difluorophenyl)-2,3-dihydro-1-benzofuran-2-yl]methanamine], for which the EC50 worked out at 49 nM. Moreover, the Emax under setting [1] is 90%.
Turning to `CNCC1Cc2cc(F)cc(-c3cccc(OC)c3OC)c2O1` (racemic) [Example 444, (±)-{[7-(2,3-dimethoxyphenyl)-5-fluoro-2,3-dihydro-1-benzofuran-2-yl]methyl}methylamine], the EC50 worked out at 37 nM. Moreover, under setting [1], the Emax came out at 80%.
Consider `Cc1cccc(C)c1-c1cc(Cl)cc2c1OC(CN)C2` (single isomer, unassigned; (+)) [Example 262, (+)-{[5-chloro-7-(2,6-dimethylphenyl)-2,3-dihydro-1-benzofuran-2-yl]methyl}amine], for which the EC50 was determined as 471 nM. Further, the “5-HT2C Function Emax (%)” value under setting [2] turned out to be 70%.
Take `Cc1cccc(C)c1-c1cc(Cl)cc2c1OC(CN(C)C)C2` (racemic) [Example 274, (±)-{[5-chloro-7-(2,6-dimethylphenyl)-2,3-dihydro-1-benzofuran-2-yl]methyl}dimethylamine]: the EC50 was found to be 330 nM. The Emax under setting [1] is 70%.
Take `CNCC1Cc2cc(Cl)cc(-c3c(C)cccc3C)c2O1` (single isomer, unassigned; (+)) [Example 565, (+)-{[5-chloro-7-(2,6-dimethylphenyl)-2,3-dihydro-1-benzofuran-2-yl]methyl}methylamine]: the EC50 is 287 nM. For the same compound, under setting [2], the “5-HT2C Function Emax (%)” value is recorded as 70%.
As for `CNCC1Cc2cc(Cl)cc(-c3cccc(OC)c3OC)c2O1` (racemic) [Example 466, (±)-{[5-chloro-7-(2,3-dimethoxyphenyl)-2,3-dihydro-1-benzofuran-2-yl]methyl}methylamine], the EC50 is 55 nM. For the same compound, under setting [1], the Emax was 70%.
As to `CNCC1Cc2cccc(-c3cccnc3)c2O1` (racemic) [Example 436, (±)-N-methyl-1-(7-pyridin-3-yl-2,3-dihydro-1-benzofuran-2-yl)methanamine], the EC50 turned out to be 55 nM. For the same compound, the Emax under setting [1] worked out at 90%.
